Entries after “also recorded” stand apart in the source; their conditions may differ.
Key:
[1] = test system: asthma and rhinitis animal models induced with ovalbumin; experiment: FL and H2 domain peptides in ovalbumin-induced asthma and rhinitis animal models; assay type: in vivo, BALB/c female mice
[2] = biological target: T1, Del-N11dTCTP (Rattus norvegicus, UniProt P63029); experiment: Inhibition of Del-N11dTCTP-induced IL-8 secretion by domain peptides in BEAS-2B cells; assay type: cell-based; conditions: Del-N11dTCTP 70 nM, peptide molar ratios 0~1, 24 hours, ELISA
T1 construct: made in house
T1 sequence (P63029 11-172 limits assumed): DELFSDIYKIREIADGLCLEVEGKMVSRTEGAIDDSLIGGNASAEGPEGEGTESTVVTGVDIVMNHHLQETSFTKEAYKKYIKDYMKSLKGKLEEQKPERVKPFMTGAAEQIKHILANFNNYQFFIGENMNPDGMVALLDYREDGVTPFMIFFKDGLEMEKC
Method: To investigate inhibitory effect of FL domain, Helix 2 domain, and Helix 3 domain on Del-N11dTCTP, the inventors synthesized FL domain (Ac-[…]-NH2) (SEQ. ID. NO: 1), Helix 2 domain (Ac-[…]-NH2) (SEQ. ID. NO: 11), and Helix 3 domain (Ac-[…]-NH2) (SEQ. ID. NO: 22) by using the synthetic peptides prepared with NH2-terminal acetylation and COOH-terminal amidation, followed by purification.
Particularly, BEAS-2B cells were treated with Del-N11dTCTP (70 nM) by the same manner as described in Experimental Example 1. At this time, the synthesized FL domain, Helix 2 domain, and Helix 3 domain were treated to the cells at different molar ratios (0˜1), followed by reaction for 30 minutes. Then, Del-N11dTCTP was added thereto. 24 hours later, the supernatant was obtained and the released IL-8 was quantified by ELISA.

[3] = test system: asthma and rhinitis animal models induced with ovalbumin; experiment: FL and H2 domain peptides in ovalbumin-induced asthma and rhinitis animal models; assay type: in vivo, BALB/c female mice; conditions: for inflammatory cells in bronchoalveolar lavage fluid (total cell number, leukocyte number) / level of IL-5 in bronchoalveolar lavage fluid: 20 mg/kg intraperitoneal, vs positive control (PBS)
Method: Particularly, 5 week old specific pathogen free BALB/c female mice (weight: approximately 20 g) were purchased from Orientbio Inc. (Seoul, Korea), followed by stabilization in an animal laboratory for 1 week. The mice were administered with 200 ? of PBS containing 1.3 mg of aluminum hydroxide (Sigma A8222) and 100 μg of ovalbumin (Sigma A5503) via intraperitoneal injection twice at a week interval, followed by sensitization. Then, 20 ? of PBS containing 200 μg of ovalbumin dissolved therein was administered via intranasal instillation on day 14, day 16, and day 18 to induce immune response. PBS was administered for the positive control and FL and H2 domains and the antisera or antibodies thereof were administered via intraperitoneal injection 10 minutes before antigen administration. On day 15, day 17, and day 19, intraperitoneal administration was performed without antigen administration. On day 19, the animals were sacrificed 2 hours after the administration (FIG. 16). 50 μg of anti-C terminus IgG was administered via intranasal instillation or intraperitoneal injection 30 minutes before the antigen administration on day 14, day 16, and day 18. 24 hours after the last administration, the animals were sacrificed (FIG. 26). The asthma and rhinitis models constructed in Example 7 were treated with FL and H2 domain at the concentration of 20 mg/kg in order to investigate whether or not those two HRF receptor binding domains could suppress pathophysiological lesion of asthma and rhinitis. Particularly, after cardiac blood collection in the animal model constructed in Example 7, bronchoalveolar lavage was performed. The airway was opened and a 20-gauge intravascular tube catheter was inserted through the opened airway, through which 0.8 ml of PBS containing 2% FBS was slowly injected three times and then recovered. The recovery rate was at least 80% and the recovered washing solution was centrifuged at 4° C. for 15 minutes at 1,000×g. The obtained supernatant was used for the detection of cytokine such as IL-5 or for the detection of TCTP protein. In the meantime, the precipitate was resuspended in 100 ? of PBS containing 2% FBS. The number of the inflammatory cells infiltrated in the washing solution was counted by using HEMAVET 950FS (Drew Scientific). Particularly, upon completion of the experiment in Example 7, the mixture of zoletil (250 mg/kg) and rompun (50 mg/kg) was administered to the mouse via intraperitoneal injection to sacrifice the animal. 0.7˜0.8 mL of blood was collected from the heart and placed in a heparinized tube. The blood sample stood at room temperature for 30 minutes˜1 hour, followed by centrifugation at 1,000×g for 15 minutes to obtain plasma. The level of ovalbumin-specific IgE in the plasma was measured by ELISA. 100 μg of ovalbumin was dissolved in 0.05 M carbonate buffer (pH 9.6), which was distributed in a 96-well ELISA plate, followed by coating at 4° C. for overnight. Non-specific reaction was blocked by reacting the plate with TBS containing 1% BSA at room temperature for 30 minutes. The plasma sample was diluted (1:100), followed by reaction at room temperature for 1 hour, which was then washed with TBS containing 0.1% Tween-20. The […] anti-mouse IgE (SouthernBiotech) was diluted (1:8000), followed by reaction at room temperature for 1 hour. Then, the mixture was washed. TMB was treated thereto at room temperature. 10 minutes later, the reaction was terminated by adding 0.2 M H2SO4. Then, OD450 was measured with an ELISA reader. Particularly, bronchoalveolar lavage fluid was collected from the asthma and rhinitis animal models constructed in Example 7. The chest was dissected and the lung was extracted, which was washed with 4° C. PBS. The lung was cut to the appropriate size. Some of the lung pieces were fixed in PBS containing 4% paraformaldehyde (PFA) at room temperature via o/n fixation. […]

Substance	IL-5 secretion in bronchoalveolar lavage fluid ([1]; 1 mg/kg)	inflammatory cells infiltrated in bronchoalveolar lavage fluid, dose dependence ([1]; 1 mg/kg and 20 mg/kg)	level of ovalbumin-specific IgE in plasma, dose dependence ([1]; various concentrations (1 and 20 mg/kg))	inhibition of IL-8 secretion induced by Del-N11dTCTP [2]	inflammatory cells in bronchoalveolar lavage fluid (total cell number, leukocyte number) [3]	level of IL-5 in bronchoalveolar lavage fluid [3]	level of ovalbumin-specific IgE in plasma ([3]; 20 mg/kg, ELISA, vs positive control)	number of total cells and level of lymphocytes in bronchoalveolar lavage fluid ([3]; 20 mg/kg, p<0.01)	level of TCTP dimer (approximately 45 kDa) in bronchoalveolar lavage fluid, immunoblotting ([3]; vs positive control)	phospho-IκBα in lung tissue, immunoblotting ([3]; vs positive control)
Ac-SRTEGAIDDSLIGGNASAEGPEGEGTESTVVT-NH2 [FL domain, ID; NO: 1]	could inhibit IL-5 secretion	reduced FL domain dose-dependently	reduced by the treatment of FL domain dose-dependently	inhibited IL-8 secretion better than Helix 3 domain; also recorded: inhibited more strongly	significantly lower	reduced	reduced	significantly reduced	reduced	decreased
Ac-TKEAYKKYIKDYMKSLKGKLEEQKP-NH2 [Helix 2 domain, ID; NO: 11]	–	–	–	inhibited IL-8 secretion better than Helix 3 domain; also recorded: inhibited more strongly	decreased	reduced	–	–	–	–
